Experimental data reported in patent publication US20250206708A1, “AN OXAZIRIDINE PLATFORM FOR TARGETING FUNCTIONAL ALLOSTERIC METHIONINE SITES” (Novartis AG, priority 2022, published 2025).

How the values were obtained:
[1] = test system: ribociclib-sensitive cell lines; assay: Cell viability screen across ribociclib-sensitive cell lines; assay type: cell-based; conditions: 500 μM compound
Protocol: All cells were maintained as a monolayer in exponential growth at 37° C. in a 5% CO2 atmosphere. MCF-7 and HepG2 were maintained in Dulbecco's Modified Eagle Medium (DMEM, Gibco) supplemented with 10% (v/v) fetal bovine serum (FBS, Seradigm). HT-29 and SW-48 were maintained in RPMI 1640 Medium (Gibco) supplemented with 10% FBS.
All cells dosed with oxaziridine were treated using a 2% DMSO/media solution. Oxaziridines were dissolved in DMSO and used the same day as treatment. Media was removed from cells and replaced with fresh media containing oxaziridine in DMSO for a final concentration of 2% DMSO. Control wells were treated with 2% DMSO/media. Cells were incubated at 37° C. in a 5% CO2 atmosphere.
Commercially available Cell Counting Kit-8 Assay (Dojindo) was used to investigate cell viability after treatment with oxaziridines. Cells were plated in 96-well plates (black/clear bottom; Thermo Fisher) and grown to 75% confluency. Media was removed and replaced with media containing 2% DMSO and indicated compound concentration. Cells were allowed to incubate 24 h. To assess viability, media was removed and replaced with 100 μL media containing 10% CCK-8 assay solution. Plates were incubated at 37° C. in a 5% CO2 atmosphere for 1-4 h until an orange color was visible. Viability was quantified via plate reader (monofilter) with absorption at 450 nm. […]

CDK4 = CDK4 (Homo sapiens, UniProt P11802); assay: ADP-Glo luciferase-based in vitro activity assay on purified CDK4; assay type: biochemical; conditions: Rb (aa 773-928) substrate, read-out: IC50, inhibition of activity of purified CDK4 protein
Protocol: Effects of Compound 148 on in vitro activity of CDK4 were determined via commercially available ADP-Glo assay (Promega; cat no.V6930). Isolated CDK4 was provided by Novartis. Retinoblastoma protein (aa 773-928) was obtained from commercial sources (Millipore Sigma; 12-439). The assay kit protocol was followed as directed, with the addition of a quench step (addition of 1 μL of 25 μM N-Acetyl methionine) after incubation of protein with oxaziridine ligand.

CDK6 [2] = biological target: T1, CDK6 (Homo sapiens, UniProt Q00534); assay: Gel-based ABPP, isoform specificity on CDK6; assay type: binding; conditions: dose-dependent treatment
Protocol: Activity-based protein profiling (ABPP) was performed as follows. CDK4 was diluted in PBS to 50 nM, then 50 μL was added to each well of a 96-well PCR plate. Ligands were dissolved fresh in DMSO to 5 μM, and 1 μL was added so each well contained a unique ligand at the indicated concentration. Wells were mixed and allowed to incubate 1 h at 23° C. Ligands were then chased with fresh Compound 301 with 1 μL of 5 μM added to each well (100 nM final), wells mixed and allowed to incubate 1 h at 23° C. Excess oxaziridine was quenched with N-acetyl methionine via addition of 1 μL of 10 mM DMSO stock (200 μM final), wells mixed and allowed to incubate 1 h at 23° C. A stock was prepared 1:5 of 12.5 μM DBCO-Cy3 in DMSO: 1.2% SDS/PBS. To each well was added 6 μL of this stock, the wells mixed and allowed to incubate overnight protected from light at 23° C. The next morning 30 μL of 4×Laemmli's buffer containing 10% BME was added to each well. The plate was sealed and brought to 95° C. for 6 min. Samples were loaded and separated on precast 4-20% TGX gels and scanned by ChemiDoc MP for measuring in-gel fluorescence. After that, the total protein level on the gel was assayed by silver staining according to the manufacturer's protocol and scanned by ChemiDoc MP.
The isoform specificity was tested with two closely-related congeners, CDK1 and CDK6.

CDK6 [3] = biological target: T1, CDK6; assay: Shotgun proteomics (MS/MS) modification of purified CDK6; assay type: binding; conditions: shotgun proteomics on purified protein

T1 sequence (Q00534 whole entry, canonical isoform): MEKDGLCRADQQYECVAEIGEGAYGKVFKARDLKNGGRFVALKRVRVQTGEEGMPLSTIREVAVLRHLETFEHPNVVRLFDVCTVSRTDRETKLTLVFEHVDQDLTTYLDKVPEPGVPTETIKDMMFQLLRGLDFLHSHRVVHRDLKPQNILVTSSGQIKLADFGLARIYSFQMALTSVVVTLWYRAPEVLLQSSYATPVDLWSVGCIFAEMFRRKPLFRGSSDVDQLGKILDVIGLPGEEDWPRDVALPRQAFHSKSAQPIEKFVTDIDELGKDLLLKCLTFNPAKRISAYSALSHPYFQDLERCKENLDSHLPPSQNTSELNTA
Chain of CDK4 (P11802 whole entry, the tested form may be a part): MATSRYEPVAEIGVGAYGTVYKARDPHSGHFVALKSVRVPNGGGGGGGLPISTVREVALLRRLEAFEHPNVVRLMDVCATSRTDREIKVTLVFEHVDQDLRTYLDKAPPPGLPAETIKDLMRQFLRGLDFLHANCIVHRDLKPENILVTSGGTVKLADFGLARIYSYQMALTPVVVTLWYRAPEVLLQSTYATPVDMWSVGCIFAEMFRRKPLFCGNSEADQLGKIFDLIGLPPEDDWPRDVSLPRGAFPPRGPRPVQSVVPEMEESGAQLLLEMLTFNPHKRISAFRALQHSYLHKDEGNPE
Chain of CDK4 (P24385 whole entry partner, the tested form may be a part): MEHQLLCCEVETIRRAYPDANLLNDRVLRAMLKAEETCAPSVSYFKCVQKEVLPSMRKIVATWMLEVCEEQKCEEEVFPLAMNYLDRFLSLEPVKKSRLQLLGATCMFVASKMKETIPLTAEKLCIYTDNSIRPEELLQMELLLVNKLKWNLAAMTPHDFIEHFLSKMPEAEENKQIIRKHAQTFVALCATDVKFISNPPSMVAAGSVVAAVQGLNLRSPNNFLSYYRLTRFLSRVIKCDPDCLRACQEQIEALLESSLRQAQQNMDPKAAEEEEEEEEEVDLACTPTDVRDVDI

`O=C(N1CC2COCC2C1)N1OC1c1ccccc1` (stereo not shown) [Compound 148] was tested, and the “cell viability of ribociclib-sensitive cell lines” value [1] was “decrease cell viability”, the IC50 (CDK4) was about 200 nM and the “labeling against CDK6 by gel analysis” value (CDK6 [2]) was “no dose-dependent labeling”. For the same molecule, the “modifications on CDK6” value (CDK6 [3]) was “No modifications”.
